Data reported in US5561139A, “Substituted alicyclic-aliphatic amine-containing macrocyclic immunomodulators” (Abbott Laboratories, priority 1995, dated 1996).

These molecules were tested on human mixed lymphocyte reaction (MLR) (assay: human mixed lymphocyte reaction (MLR) assay, immunosuppressant activity). Conditions: Table 1.
Assay type: cell-based
Experimental: Example 68; In Vitro Assay of Biological Activity
The immunosuppressant activity of the compounds of the present invention was determined using the human mixed lymphocyte reaction (MLR) assay described by Kino, T. et al. in Transplantation Proceedings XIX(5);36-39, Suppl. 6 (1987), incorporated herein by reference.

IC50, < 1000 nM:
CC[C@@H]1/C=C(\C)C[C@H](C)C[C@H](OC)[C@H]2O[C@@](O)(C(=O)C(=O)N3CCCC[C@H]3C(=O)O[C@H](/C(C)=C/[C@@H]3CC[C@H](NCCN4CCCC4)[C@H](OC)C3)[C@H](C)[C@@H](O)CC1=O)[C@H](C)C[C@@H]2OC [Example 19]
CC[C@@H]1/C=C(\C)C[C@H](C)C[C@H](OC)[C@H]2O[C@@](O)(C(=O)C(=O)N3CCCC[C@H]3C(=O)O[C@H](/C(C)=C/[C@@H]3CC[C@H](N(CCO)CCN4CCOCC4)[C@H](OC)C3)[C@H](C)[C@@H](O)CC1=O)[C@H](C)C[C@@H]2OC [Example 30]
CC[C@@H]1/C=C(\C)C[C@H](C)C[C@H](OC)[C@H]2O[C@@](O)(C(=O)C(=O)N3CCCC[C@H]3C(=O)O[C@H](/C(C)=C/[C@@H]3CC[C@@H](NCCCN4CCCCC4)[C@H](OC)C3)[C@H](C)[C@@H](O)CC1=O)[C@H](C)C[C@@H]2OC [Example 47]
CC[C@@H]1/C=C(\C)C[C@H](C)C[C@H](OC)[C@H]2O[C@@](O)(C(=O)C(=O)N3CCCC[C@H]3C(=O)O[C@H](/C(C)=C/[C@@H]3CC[C@H](NCCN4CCOCC4)[C@H](OC)C3)[C@H](C)[C@@H](O)CC1=O)[C@H](C)C[C@@H]2OC [Example 5]
CC[C@@H]1/C=C(\C)C[C@H](C)C[C@H](OC)[C@H]2O[C@@](O)(C(=O)C(=O)N3CCCC[C@H]3C(=O)O[C@H](/C(C)=C/[C@@H]3CC[C@H](NCCCN4CCOCC4)[C@H](OC)C3)[C@H](C)[C@@H](O)CC1=O)[C@H](C)C[C@@H]2OC [Example 17]
CC[C@@H]1/C=C(\C)C[C@H](C)C[C@H](OC)[C@H]2O[C@@](O)(C(=O)C(=O)N3CCCC[C@H]3C(=O)O[C@H](/C(C)=C/[C@@H]3CC[C@H](NCCCN4CCN(C)CC4)[C@H](OC)C3)[C@H](C)[C@@H](O)CC1=O)[C@H](C)C[C@@H]2OC [Example 12]
CC[C@@H]1/C=C(\C)C[C@H](C)C[C@H](OC)[C@H]2O[C@@](O)(C(=O)C(=O)N3CCCC[C@H]3C(=O)O[C@H](/C(C)=C/[C@@H]3CC[C@H](NC4CCN(Cc5ccccc5)CC4)[C@H](OC)C3)[C@H](C)[C@@H](O)CC1=O)[C@H](C)C[C@@H]2OC [Example 8]
CC[C@@H]1/C=C(\C)C[C@H](C)C[C@H](OC)[C@H]2O[C@@](O)(C(=O)C(=O)N3CCCC[C@H]3C(=O)O[C@H](/C(C)=C/[C@@H]3CC[C@H](NCCCN4CCCCC4)[C@H](OC)C3)[C@H](C)[C@@H](O)CC1=O)[C@H](C)C[C@@H]2OC [Example 9]
CC[C@@H]1/C=C(\C)C[C@H](C)C[C@H](OC)[C@H]2O[C@@](O)(C(=O)C(=O)N3CCCC[C@H]3C(=O)O[C@H](/C(C)=C/[C@@H]3CC[C@H](NCCN4CCNCC4)[C@H](OC)C3)[C@H](C)[C@@H](O)CC1=O)[C@H](C)C[C@@H]2OC [Example 18]
